According to ChEMBL document CHEMBL4673202, “Design of Potent and Druglike Nonphenolic Inhibitors for Catechol O-Methyltransferase Derived from a Fragment Screening Approach Targeting the S-Adenosyl-l-methionine Pocket” (J Med Chem, 2016):
≈ marks a conversion by molar mass, not a printed value.

Tests used:
[1] = Solubility of compound; format: physicochemical
[2] = Distribution coefficient, log D of compound in octanol and water at pH 7.4; format: physicochemical
[3] = target: T1, Catechol O-methyltransferase (Homo sapiens, UniProt P21964); assay: Inhibition of recombinant wild-type human COMT expressed in Escherichia coli BL21 using 4-nitrocatechol-Alexa488 as substrate in presence of cofactor SAM preincubated for 1 min followed by substrate addition and measured every 60 sec up to 180 times by fluorescence based microtiter plate reader analysis
T1 sequence (P21964 whole entry): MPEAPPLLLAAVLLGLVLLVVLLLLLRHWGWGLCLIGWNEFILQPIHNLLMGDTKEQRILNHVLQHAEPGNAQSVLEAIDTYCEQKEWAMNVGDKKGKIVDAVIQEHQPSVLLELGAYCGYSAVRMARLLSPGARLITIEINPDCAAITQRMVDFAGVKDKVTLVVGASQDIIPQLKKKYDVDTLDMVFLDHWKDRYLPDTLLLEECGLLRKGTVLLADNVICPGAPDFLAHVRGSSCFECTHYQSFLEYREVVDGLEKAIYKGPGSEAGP

Row | SMILES | solubility [1] [µg/mL] | logD [2] | IC50 [3] [nM]
1 | CCc1nc(C)c(-c2cc[nH]n2)s1 |  |  | 21000
2 | Cc1nc(C)c(-c2cc(Cc3ccc(-c4cnn(C)c4)cc3)[nH]n2)s1 | 4 (≈ 11.4 µM) | 3.9 | 1300
3 | Cc1nc(C)c(-c2cc(Cc3ccccc3)[nH]n2)s1 | 15 (≈ 55.7 µM) | 3.6 | 2000
4 | Cc1nc(C)c(-c2cc(C(C)(C)c3ccccc3)[nH]n2)s1 | 4 (≈ 13.4 µM) | 4.1 | 1100
5 | Cc1nc(-c2ccccc2)sc1-c1cc[nH]n1 |  |  | 24000
6 | Cc1nc(C)c(-c2cc(C(C)c3ccccc3)[nH]n2)s1 (stereo not given) | 3 (≈ 10.6 µM) | 3.9 | 900
7 | Cc1nc(C)c(-c2cc(C3(c4ccccc4)CC3)[nH]n2)s1 | 1 (≈ 3.39 µM) | 4.2 | 210
8 | COc1ccc(Cc2cc(-c3sc(C)nc3C)n[nH]2)cc1 | 2 (≈ 6.68 µM) | 3.7 | 1000
9 | CCC(c1ccccc1)c1cc(-c2sc(C)nc2C)n[nH]1 (stereo not given) | 24 (≈ 80.7 µM) | 4.3 | 21000
10 | Cc1nc(C)c(-c2cc(CCc3ccccc3)[nH]n2)s1 | 4 (≈ 14.1 µM) | 4 | 8000

Now from value to compound:

Row | solubility [1] [µg/mL] | logD [2] | IC50 [3] [nM] | SMILES
11 | 5 (≈ 17.6 µM) | 4 | 700 | Cc1nc(C)c(-c2cc([C@H](C)c3ccccc3)[nH]n2)s1
12 | 8 (≈ 26.9 µM) | 4.4 | 34000 | Cc1nc(C)c(-c2cc(CCCc3ccccc3)[nH]n2)s1
13 |  |  | 3200 | Cc1nc(C)c(-c2cc(Cc3ccc(-c4ccccc4)cc3)[nH]n2)s1
14 |  |  | 1100 | Cc1nc(C)c(-c2cc([C@@H](C)c3ccccc3)[nH]n2)s1
15 |  |  | > 625000 | Cc1nc(C2CC2)c(-c2cc[nH]n2)s1
16 | 5 (≈ 16 µM) | 3.9 | 860 | COc1ccc([C@H](C)c2cc(-c3sc(C)nc3C)n[nH]2)cc1
17 |  | 2.6 | 20000 | CCc1cc(-c2sc(C)nc2C)n[nH]1
18 |  |  | > 625000 | c1ccc(-c2ncc(-c3cc[nH]n3)s2)cc1
19 |  |  | 130000 | Cc1nc(C)c(-c2cc(-c3ccccc3)[nH]n2)s1
20 | 2 (≈ 6.15 µM) | 4.1 | 75 | COc1ccc(C2(c3cc(-c4sc(C)nc4C)n[nH]3)CC2)cc1
21 |  |  | > 425000 | Cc1nc(Cc2ccccc2)sc1-c1cc[nH]n1
22 | 5 (≈ 16 µM) | 4 | 470 | COc1ccc([C@@H](C)c2cc(-c3sc(C)nc3C)n[nH]2)cc1
23 |  |  | 11000 | Cc1ccc(-c2nc(C)c(-c3cc[nH]n3)s2)cc1
